The target of this test is T1, human IL-17AA (Homo sapiens, UniProt Q16552).
T1 construct: host or cells: HEK (human embryonic kidney) cells
T1 sequence (Q16552 24-155): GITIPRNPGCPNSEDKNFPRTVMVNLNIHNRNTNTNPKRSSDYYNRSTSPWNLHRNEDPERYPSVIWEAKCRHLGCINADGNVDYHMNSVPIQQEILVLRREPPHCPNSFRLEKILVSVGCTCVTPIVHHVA
Nature of the test: IL-8 release assay in human epithelial keratinocytes adult (HEKa). Type of test: cell-based. The settings on record: HEKa cells, 3 ng/mL HEK-human IL-17AA + 10 ng/mL human TNFalpha; read-out: Rel EC50 IL-8 release assay. On the procedure: Example 138: IL-8 Release Assay in Human Epithelial Keratinocytes Adult (HEKa)
Keratinocytes were seeded at 3500 cells/well in 384-well ViewPlates (Perkin Elmer) in Epilife medium (Thermo Fisher) containing human keratinocyte growth supplement (HKGS) without hydrocortisone and incubated in a humid incubator at 37° C. 5% CO2, overnight. The following day growth medium was removed and 25 μl fresh Epilife medium added. 75 nL test compound in 100% DMSO was added into each well reserved for test compounds, by the use of acoustic pipetting. The remaining wells received an equal volume of DMSO only, as vehicle control, or terfenadine in DMSO, as a positive control for any cytotoxic compounds. Subsequently, another 25 μL Epilife medium was added to each well. Finally, wells containing test compounds and wells prepared to yield maximum stimulation received […] of 9 ng/mL recombinant, human embryonic kidney cell (HEK)-derived human IL-17AA+30 ng/mL human TNF-alpha, in Epilife medium. Wells prepared to define 100% inhibition of IL-17 effects received 25 μL of 30 ng/mL human TNF-alpha alone, in Epilife medium. Final concentrations were 3 ng/mL HEK-human IL-17AA+10 ng/mL human TNFalpha (maximum stimulation) and 10 ng/mL human TNFalpha alone (100% inhibition, Emax), respectively. Cells were incubated for 68-72 hours in the incubator. IL-8 released from the cells was measured by the use of a commercial homogenous time-resolved fluorescence (HTRF) assay (CisBio). 2 μL cell culture supernatant was transferred to a 384-well Proxiplate. 5 μL HTRF reagent was added and the plates incubated sealed in the dark for 3-22 hours at room temperature. Time-resolved fluorescence was read at 665 vs 620 nm, with excitation at 320 nm, and IL-8 levels calculated as percent of controls. Reduction of the amount of secreted IL-8 indicates decreased IL-17 signaling. Concentration response curves were fitted by the use of a four-parameter logistic equation. Relative IC50 and Emax were reported from curves showing acceptable fit (r^2>0.9). Cytotoxicity was measured in the cell-containing Viewplates following addition of 7 μL PrestoBlue (Thermo Fisher) and incubation for 2.5-3 hours at room temperature, by measuring fluorescence at 615 nm (excitation at 535 nm). Fluorescence was directly proportional to the amount of metabolic activity. Reduction of fluorescence signal indicated cytotoxicity.
Compounds of the present invention were tested in the IL-8 release assay in human epithelial keratinocytes.
Compounds having a Relative EC50 of X; wherein X<100 nM; are indicated with *
Compounds having a Relative EC50 of X; wherein 100 nM<X<1000 nM; are indicated with **
Compounds having a Relative EC50 of X; wherein 1000 nM<X; are indicated with ***

Each structure is given as a SMILES string. Where only a bound is given, the exact number is not on record here.

With `Cc1n[nH]c(C)c1-c1ccc(NC(=O)[C@@H](NC(=O)c2ccnn2C(C)CO)[C@@H]2CC(C)(C)CCC2(F)F)cc1` (single isomer, unassigned) [Example 211], the concentration for a half-maximal effect (EC50) was less than 100 nM.
The figure for `Cc1n[nH]c(C)c1-c1ccc(NC(=O)[C@@H](NC(=O)c2ccnn2C)C2CC23CCC3)cc1` (single isomer, unassigned) [Example 223] is greater than 1000 nM; for `Cc1n[nH]c(C)c1-c1ccc(NC(=O)[C@@H](NC(=O)c2ccnn2C)C2CC2(C)C)cc1` (single isomer, unassigned) [Example 224] it is greater than 1000 nM; for `Cc1n[nH]c(C)c1-c1ccc(NC(=O)[C@@H](NC(=O)c2ccnn2C(C)CCO)C(C2CC2)C2CC2)cc1` (single isomer, unassigned) [Example 225] it is less than 100 nM.
The figure for `Cc1n[nH]c(C)c1-c1ccc(NC(=O)[C@@H](NC(=O)c2ccnn2C(C)CCO)C(C2CC2)C2CC2)cc1` (single isomer, unassigned) [Example 226] is less than 100 nM; for `CCC(c1ccccc1)C(NC(=O)c1ccnn1C)C(=O)Nc1ccc(-c2c(C)n[nH]c2C)cc1` (single isomer, unassigned) [Example 227] it is greater than 1000 nM.
The figure for `CCC(c1ccccc1)C(NC(=O)c1ccnn1C)C(=O)Nc1ccc(-c2c(C)n[nH]c2C)cc1` (single isomer, unassigned) [Example 228] is 100 to 1000 nM; for `Cc1n[nH]c(C)c1-c1ccc(NC(=O)[C@@H](NC(=O)c2ccnn2C)C2CCC2(C)C)cc1` (single isomer, unassigned) [Example 232] it is 100 to 1000 nM.
`Cc1n[nH]c(C)c1-c1ccc(NC(=O)C(NC(=O)c2ccnn2C)[C@@H](C)c2ccccc2)cc1` (single isomer, unassigned) [Example 234]: the concentration for a half-maximal effect (EC50) was 100 to 1000 nM.
The figure for `Cc1n[nH]c(C)c1-c1ccc(NC(=O)C(NC(=O)c2ccnn2C)C(C)c2ccccc2)cc1` (single isomer, unassigned) [Example 235] is greater than 1000 nM; for `Cc1n[nH]c(C)c1-c1ccc(NC(=O)C(NC(=O)c2ccnn2C)C(C)c2ccccc2)cc1` (single isomer, unassigned) [Example 236] it is greater than 1000 nM.
The figure for `Cc1n[nH]c(C)c1-c1ccc(NC(=O)C(NC(=O)c2ccnn2C)C(C)c2ccccc2)cc1` (single isomer, unassigned) [Example 237] is greater than 1000 nM.
The figure for `Cc1n[nH]c(C)c1-c1ccc(NC(=O)[C@@H](NC(=O)c2ccnn2C)C2CCCC(C)(C)C2)cc1` (single isomer, unassigned) [Example 239] is less than 100 nM; for `Cc1n[nH]c(C)c1-c1ccc(NC(=O)C(NC(=O)c2ccnn2C)C2CCc3c(F)cccc32)cc1` (single isomer, unassigned) [Example 247] it is less than 100 nM; for `Cc1n[nH]c(C)c1-c1ccc(NC(=O)C(NC(=O)c2ccnn2C)C2CCc3c(F)cccc32)cc1` (single isomer, unassigned) [Example 248] it is greater than 1000 nM.
As for `Cc1n[nH]c(C)c1-c1ccc(NC(=O)[C@@H](NC(=O)c2ccnn2C)C2CC3CCC2CC3)cc1` (single isomer, unassigned) [Example 254], the half-maximal effective concentration (EC50) was in the range of 100 to 1000 nM.
The figure for `Cc1n[nH]c(C)c1-c1ccc(NC(=O)C(NC(=O)c2ccnn2C)[C@H]2CCCc3c(F)cc(F)cc32)cc1` (single isomer, unassigned) [Example 255] is less than 100 nM; for `Cc1n[nH]c(C)c1-c1ccc(NC(=O)C(NC(=O)c2ccnn2C)[C@H]2CCCc3c(F)cccc32)cc1` (single isomer, unassigned) [Example 256] it is less than 100 nM; for `CCC(C1CCCCC1)C(NC(=O)c1ccnn1C)C(=O)Nc1ccc(-c2c(C)n[nH]c2C)cc1` (single isomer, unassigned) [Example 257] it is less than 100 nM.
The figure for `CCC(C1CCCCC1)C(NC(=O)c1ccnn1C)C(=O)Nc1ccc(-c2c(C)n[nH]c2C)cc1` (single isomer, unassigned) [Example 258] is less than 100 nM; for `Cc1n[nH]c(C)c1-c1ccc(NC(=O)C(NC(=O)c2ccnn2C)C2CCCc3cc(F)ccc32)cc1` (single isomer, unassigned) [Example 259] it is greater than 1000 nM; for `Cc1n[nH]c(C)c1-c1ccc(NC(=O)C(NC(=O)c2ccnn2C)C2CCCc3cc(F)ccc32)cc1` (single isomer, unassigned) [Example 260] it is less than 100 nM.
The figure for `Cc1n[nH]c(C)c1-c1ccc(NC(=O)[C@@H](NC(=O)c2ccnn2C)C2C[C@@H](C)C[C@@H](C)C2)cc1` (single isomer, unassigned) [Example 268] is less than 100 nM; for `Cc1n[nH]c(C)c1-c1ccc(NC(=O)[C@@H](NC(=O)c2ccnn2C)C2CCC(C(F)(F)F)CC2)cc1` (single isomer, unassigned) [Example 269] it is 100 to 1000 nM.
As to `Cc1n[nH]c(C)c1-c1ccc(NC(=O)C(NC(=O)c2ccnn2C)C(c2ccccc2)C2CCC2)cc1` (single isomer, unassigned) [Example 299, N-[1-[cyclobutyl(phenyl)methyl]-2-[4-(3,5-dimethyl-1H-pyrazol-4-yl)anilino]-2-oxo-ethyl]-2-methyl-pyrazole-3-carboxamide], the EC50 was less than 100 nM.
The figure for `Cc1n[nH]c(C)c1-c1ccc(NC(=O)C(NC(=O)c2ccnn2C)C(c2ccccc2)C2CCC2)cc1` (single isomer, unassigned) [Example 300, N-[1-[cyclobutyl(phenyl)methyl]-2-[4-(3,5-dimethyl-1H-pyrazol-4-yl)anilino]-2-oxo-ethyl]-2-methyl-pyrazole-3-carboxamide] is greater than 1000 nM; for `Cc1n[nH]c(C)c1-c1ccc(NC(=O)C(NC(=O)c2ccnn2C)C(c2ccccc2)C2CC2)cc1` (single isomer, unassigned) [Example 301, N-[1-[cyclopropyl(phenyl)methyl]-2-[4-(3,5-dimethyl-1H-pyrazol-4-yl)anilino]-2-oxo-ethyl]-2-methyl-pyrazole-3-carboxamide] it is 100 to 1000 nM; for `Cc1n[nH]c(C)c1-c1ccc(NC(=O)C(NC(=O)c2ccnn2C)C(c2ccccc2)C2CC2)cc1` (single isomer, unassigned) [Example 302, N-[1-[cyclopropyl(phenyl)methyl]-2-[4-(3,5-dimethyl-1H-pyrazol-4-yl)anilino]-2-oxo-ethyl]-2-methyl-pyrazole-3-carboxamide] it is greater than 1000 nM.
The figure for `Cc1n[nH]c(C)c1-c1ccc(NC(=O)C(NC(=O)c2ccnn2C)C(c2ccccc2)C2CC2)cc1` (single isomer, unassigned) [Example 303, N-[1-[cyclopropyl(phenyl)methyl]-2-[4-(3,5-dimethyl-1H-pyrazol-4-yl)anilino]-2-oxo-ethyl]-2-methyl-pyrazole-3-carboxamide] is 100 to 1000 nM; for `Cc1n[nH]c(C)c1-c1ccc(NC(=O)C(NC(=O)c2ccnn2C)C(c2ccccc2)C2CC2)cc1` (single isomer, unassigned) [Example 304, N-[1-[cyclopropyl(phenyl)methyl]-2-[4-(3,5-dimethyl-1H-pyrazol-4-yl)anilino]-2-oxo-ethyl]-2-methyl-pyrazole-3-carboxamide] it is greater than 1000 nM.
In the case of `Cn1cncc1-c1ccc(NC(=O)C(NC(=O)OC(C)(C)C)C(c2ccccc2)C2CCC2)cc1` (single isomer, unassigned) [Example 310, tert-butyl N-[1-[cyclobutyl(phenyl)methyl]-2-[4-(3-methylimidazol-4-yl)anilino]-2-oxo-ethyl]carbamate], the concentration giving a half-maximal response (EC50) is greater than 1000 nM.
The figure for `Cn1cncc1-c1ccc(NC(=O)C(NC(=O)OC(C)(C)C)C(c2ccccc2)C2CCC2)cc1` (single isomer, unassigned) [Example 311, tert-butyl N-[1-[cyclobutyl(phenyl)methyl]-2-[4-(3-methylimidazol-4-yl)anilino]-2-oxo-ethyl]carbamate] is greater than 1000 nM.
The figure for `Cn1cncc1-c1ccc(NC(=O)[C@@H](NC(=O)OC(C)(C)C)C(C2CCCCC2)C2CCCC2)cc1` (single isomer, unassigned) [Example 312] is greater than 1000 nM.

For orientation: EC50 means the concentration at which the effect is half-maximal.

Values taken from US11377425B1, “Small molecule modulators of IL-17” (LEO Pharma A/S, priority 2018, dated 2022).
